Reference: patent US20130041005A1, “PHARMACEUTICAL COMPOSITIONS COMPRISING NEUROPILIN INHIBITORS, AND THEIR USE FOR THE PREVENTION AND/OR TREATMENT OF ANGIOGENIC DISORDERS AND CANCERS” (TRAGEX PHARMA, priority 2011, published 2013)

What was measured:
SH-SY5Y = test: WST-1 proliferation assay, SH-SY5Y; assay type: cell-based; conditions: Homo sapiens; Brain SH-SY5Y, 72 h; read-out: Anti-proliferative activity IC50 (μM) ± SD
Description: Several cancer cell lines were used: breast cancer cells (MDA-MB-231 (ATTCC® Number HTB-26™), MDA-MB-436 (ATTCC® Number HTB-130™), MDA-MB-438, BT-474 (ATTCC® Number HTB-20™)); cervical cancer cells (HeLa (ATTCC® Number CCL-2™)); colon cancer cells (HCT-116 (ATTCC® Number CCL-247™) and HT-29 (ATTCC® Number HTB-38™)); osteosarcoma cells (U2OS (ATTCC® Number HTB-96™)); pancreas cancer cells (MIA PaCa-2 (ATTCC® Number CRL-1420™) and Panc-10.5 (ATTCC® Number CRL-2547™)); prostate cancer cells (PC-3 (ATTCC® Number CRL-1435™) and LNCaP (ATTCC® Number CRL-1740™)); brain cancer cells (U87 glioblastoma (ATTCC® Number HTB-14™) and SH-SYSY neuroblastoma (ATTCC® Number CRL-2266™)). […]
After observation of cells under the microscope, old media were removed and the adherent cells washed gently twice with PBS (Phosphate Buffer Saline, —Ca^2+, —Mg^2+, Lonza cat no: 17-512F/12). […] 50 μl of this solution were transferred in 20 μl of isotonic solution and the cells were counted by count cellular (Beckman Coulter). […]
The cell proliferation WST-1 assay is a colorimetric assay for the quantification of cell proliferation and viability, based on the enzymatic cleavage of the tetrazolium salt WST-1 added to the culture medium, to a water soluble colored formazan dye, detected by absorbance at 450 nm, by mitochondrial succinate-tetrazolium reductase in viable cells. […]

NRP-2 = biological target: T1, NRP-2 (Homo sapiens, UniProt O60462); test: ELISA inhibition of VEGF binding to NRP-2
T1 construct: fused on or other part: Possibly an Fc or His tag on the purchased soluble ectodomain
Description: Elisa test was performed covering a 96-well microplate (BD Biosciences, France, cat no 353046) surface with 100 μl of 1×PBS, pH 7.4 with Ca^2+ and Mg^2+, (Lonza, France, cat no 17-513F/12) solution containing 0.2 μg/ml of VEGF-R1 (R&D Systems, UK, cat no 321-FL-050/CF) or 2 μg/ml of NRP-1 (R&D Systems, UK, cat no 3870-N1-025) or NRP-2 (R&D Systems, UK, cat no 321-FL). The plate was sealed and incubated overnight at 4° C. After 3 washes with 200 μl of 1×PBS 0.5% (v/v) Tween 20 (Sigma, France, cat no 34078) (Buffer A), the plate was blocked by adding 200 μl of 1×PBS with 0.5% (w/v) BSA (Eurobio, France, cat no GAUBSA01-65) and agitated at 37° C. for 2 h. After washing five times with Buffer A, 50 μl/well of the compounds of the invention at 10 μM were added for the specific signal and 50 μl/well for the non-specific and max binding signal and incubated at 37° C. for 1 hour, shacking. […] Luminescence was quantified with an EnVision™ 2101 Multilabel reader (Perkin Elmer, USA) and the data analyzed by Wallac Envision manager software. […] Non-specific binding is defined as the signal measured in the absence of receptor coated on the microplate. The specific binding was calculated as the difference between total binding and non-specific binding. The percentage of inhibition was calculated as following: […]

T1 sequence (O60462 whole entry, the tested form may be a part): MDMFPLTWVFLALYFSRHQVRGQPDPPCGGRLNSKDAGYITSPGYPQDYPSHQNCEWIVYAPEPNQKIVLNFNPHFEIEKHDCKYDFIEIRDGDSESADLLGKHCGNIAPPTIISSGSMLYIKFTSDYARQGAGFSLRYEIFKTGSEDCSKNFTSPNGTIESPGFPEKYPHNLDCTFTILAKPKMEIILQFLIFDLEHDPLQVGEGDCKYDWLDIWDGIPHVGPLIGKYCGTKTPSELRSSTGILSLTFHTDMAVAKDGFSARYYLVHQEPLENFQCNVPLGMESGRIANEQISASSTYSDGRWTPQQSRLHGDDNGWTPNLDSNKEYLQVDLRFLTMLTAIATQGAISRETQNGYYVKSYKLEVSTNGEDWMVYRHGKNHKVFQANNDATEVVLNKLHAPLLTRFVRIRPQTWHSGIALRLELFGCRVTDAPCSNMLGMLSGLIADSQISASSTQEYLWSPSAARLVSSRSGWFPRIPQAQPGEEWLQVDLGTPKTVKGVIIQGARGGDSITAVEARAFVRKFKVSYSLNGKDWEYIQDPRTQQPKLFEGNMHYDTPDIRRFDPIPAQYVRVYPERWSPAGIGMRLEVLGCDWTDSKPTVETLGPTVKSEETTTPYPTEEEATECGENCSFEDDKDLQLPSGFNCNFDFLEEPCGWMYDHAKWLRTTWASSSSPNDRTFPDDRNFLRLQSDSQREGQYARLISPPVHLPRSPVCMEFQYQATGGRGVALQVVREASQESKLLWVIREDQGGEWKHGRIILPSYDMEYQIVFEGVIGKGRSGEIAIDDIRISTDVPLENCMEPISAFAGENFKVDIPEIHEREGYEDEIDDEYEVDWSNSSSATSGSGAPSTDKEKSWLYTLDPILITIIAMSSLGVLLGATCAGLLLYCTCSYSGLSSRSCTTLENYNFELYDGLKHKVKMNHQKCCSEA

SMILES | IC50 (SH-SY5Y) | IC50 (NRP-2)
Cc1ccc(-c2nc3ccccc3[nH]2)cc1NC(=S)NC(=O)c1ccc2c(c1)OCCO2 [Compound 1, N-[5-(1H-benzimidazol-2-yl)-2-methylphenyl]-N′-(2,3-dihydro-1,4-benzodioxin-6-ylcarbonyl)thiourea] | 0.4 ± 0.03 µM | 42 ± 3.15 µM
O=C(NC(=S)Nc1cccc(-c2nc3ccccc3[nH]2)c1)c1ccc2c(c1)OCCO2 [Compound 2, N-[3-(1H-benzimidazol-2-yl)phenyl]-N′-(2,3-dihydro-1,4-benzodioxin-6-ylcarbonyl)thiourea] | 0.05 ± 0.04 µM | 35 ± 5.23 µM
